Measured values reported in ChEMBL document CHEMBL5154681, “Small Amphiphilic Peptides: Activity Against a Broad Range of Drug-Resistant Bacteria and Structural Insight into Membranolytic Properties” (J Med Chem, 2022).
≈ marks a conversion by molar mass, not a printed value. Calls of active or inactive are those of the source. The rule behind the calls is not given here. Square brackets hold non-standard residues; d marks the D form. Peptide text beside a SMILES is read from it. Dip = N[C@H](C(=O)O)C(c1ccccc1)c1ccccc1; 2Nal = N[C@@H](Cc1ccc2ccccc2c1)C(=O)O

Columns and labels:
[1] = test system: Staphylococcus aureus; assay: Antibacterial activity against methicillin resistant Staphylococcus aureus ATCC BAA-1556 after 24 hrs in presence of 4.5 mM of KCl by microtiter plate method; assay type: functional
[2] = test system: Enterococcus faecalis; assay: Antibacterial activity against vancomycin-resistant Enterococcus faecalis ATCC 51575 incubated for 24 hrs by microtiter plate method; assay type: functional
[3] = test system: Staphylococcus aureus; assay: Bactericidal activity against methicillin resistant Staphylococcus aureus ATCC BAA-1556 assessed as time required for complete reduction of bacterial growth at 4 times MIC by counting formed colonies; assay type: functional
[4] = test system: Pseudomonas aeruginosa; assay: Antibacterial activity against Pseudomonas aeruginosa ATCC 27883 incubated for 24 hrs by microtiter plate method; assay type: functional; details: Pseudomonas aeruginosa, ATCC 27883, read-out: MIC
[5] = Proteolytic stability in human plasma at 100 uM incubated for 30 mins by Q-TOF LC/MS analysis relative to control; assay type: ADME, cell-free; details: read-out: Stability
[6] = test system: Cell membrane; assay: Membrano-lytic effect in cytoplasmic membrane of methicillin resistant Staphylococcus aureus ATCC BAA-1556 assessed as disruption by measuring propidium iodide fluorescence incubated for 1 hr by FACscan flow cytometer analysis; details: DDE = dose-dependent effect
[7] = test system: Klebsiella pneumoniae; assay: Antibacterial activity against Klebsiella pneumoniae ATCC 13883 […] incubated for 24 hrs by microtiter plate method; assay type: functional
[8] = test system: Lipid bilayer; assay: Membrano-lytic effect in bacterial inner membrane mimic DOPC/DOPG (7:3) large unilamellar vesicles assessed as calcein leakage measured at 5 microg/ml, incubated for 30 mins by multimode microplate reader assay; assay type: cell membranes; details: dose 5.0 µg/ml
[9] = test system: Enterococcus faecium; assay: Antibacterial activity against Enterococcus faecium ATCC 27270 incubated for 24 hrs by microtiter plate method; assay type: functional
[10] = test system: Escherichia coli; assay: Antibacterial activity against Escherichia coli ATCC BAA-2452 assessed as loss of membrane fluid at 4 times of MIC incubated for 30 mins by FE-SEM analysis; assay type: functional, organism-based
[11] = test system: Lipid bilayer; assay: Membrano-lytic effect in mammalian membrane mimic DOPC/cholesterol (10:1) large unilamellar vesicles assessed as calcein leakage measured at 50 microg/ml measured upto 100 mins for every 10 mins by multimode microplate reader assay; assay type: cell membranes; details: dose 50.0 µg/ml
[12] = test system: Staphylococcus aureus; assay: Antibacterial activity against methicillin-resistant Staphylococcus aureus ATCC BAA-1556 assessed as loss of membrane fluid at 4 times of MIC incubated for 30 mins by FE-SEM analysis; assay type: functional, organism-based
[13] = Cytotoxicity against HEK293 assessed as cell viability at 150 ug/ml incubated for 24 hrs by microplate spectrophotometer analysis method relative to control; assay type: toxicity, cell-based; details: human, HEK293 cells, at 150 µg/mL, read-out: Activity
[14] = Hemolytic activity in human RBC assessed as hemolysis incubated for 2 hrs by spectrophotometer analysis; assay type: toxicity, cell-based, Erythrocyte; details: human red blood cells (erythrocytes)
[15] = test system: Lipid bilayer; assay: Membrano-lytic effect in bacterial inner membrane mimic DOPC/DOPG (7:3) large unilamellar vesicles assessed as calcein leakage measured upto 100 mins for every 10 mins by multimode microplate reader assay; assay type: cell membranes; details: dose 5-50 µg/ml, DDE = dose-dependent effect
[16] = test system: HepaRG; assay: Cytotoxicity against human HPRGC10 assessed as cell viability at 50 ug/ml incubated for 24 hrs by microplate spectrophotometer analysis method relative to control; assay type: functional; details: read-out: Activity
[17] = Selectivity ratio of MIC for antibacterial activity against Pseudomonas aeruginosa ATCC 10145 to MIC for antibacterial activity against imipenem-resistant Pseudomonas aeruginosa ATCC BAA-1744; assay type: functional
[18] = test system: Staphylococcus aureus; assay: Antibacterial activity against methicillin resistant Staphylococcus aureus ATCC BAA-1556 after 24 hrs in presence of 150 mM of NaCl by microtiter plate method; assay type: functional
[19] = Cytotoxicity against human MRC5 assessed as cell viability at 50 ug/ml incubated for 24 hrs by microplate spectrophotometer analysis method relative to control; assay type: toxicity, cell-based; details: MRC5 cells, at 50 µg/mL, read-out: Activity
[20] = test system: Escherichia coli; assay: Antibacterial activity against Escherichia coli NDM-1-resistant ATCC BAA-2452 incubated for 24 hrs by microtiter plate method; assay type: functional
[21] = test system: Escherichia coli; assay: Bactericidal activity against Escherichia coli ATCC BAA-2452 assessed as reduction of bacterial growth at 4 times MIC by counting formed colonies; assay type: functional, organism-based; details: time <= 4.0 hrs, TDE = time-dependent effect
[22] = test system: Staphylococcus aureus; assay: Antibacterial activity against methicillin resistant Staphylococcus aureus ATCC BAA-1556 after 24 hrs in presence of 2 mM of CaCl2 by microtiter plate method; assay type: functional
[23] = test system: Escherichia coli; assay: Antibacterial activity against Escherichia coli ATCC 25922 after 24 hrs in presence of 150 mM NaCl by microtiter plate method; assay type: functional
[24] = Selectivity ratio of MIC for antibacterial activity against Klebsiella pneumoniae ATCC 13883 to MIC for antibacterial activity against carbapenem-resistant Klebsiella pneumoniae ATCC BAA-2470; assay type: functional
[25] = test system: Staphylococcus aureus; assay: Bactericidal activity against methicillin resistant Staphylococcus aureus ATCC BAA-1556 assessed as time required for complete reduction of bacterial growth at MIC by counting formed colonies; assay type: functional
[26] = test system: Escherichia coli; assay: Antibacterial activity against Escherichia coli ATCC 25922 after 24 hrs in presence of 4.5 mM of KCl at by microtiter plate method; assay type: functional
[27] = test system: Staphylococcus aureus; assay: Antibacterial activity against methicillin resistant Staphylococcus aureus ATCC BAA-1556 incubated for 24 hrs; assay type: functional
[28] = test system: Lipid bilayer; assay: Induction of membrane disruption in bacterial inner membrane mimic DOPC/DOPG (7:3) large unilamellar vesicles assessed as decrease in particle size of liposome at 1:1 compound to lipid ratio measured after 90 mins by dynamic light scattering analysis; assay type: cell membranes
[29] = test system: Staphylococcus aureus; assay: Antibacterial activity against methicillin resistant Staphylococcus aureus ATCC BAA-1556 after 24 hrs in presence of fetal bovine serum by microtiter plate method; assay type: functional
[30] = test system: Enterococcus faecalis; assay: Antibacterial activity against Enterococcus faecalis ATCC 29212 incubated for 24 hrs by microtiter plate method; assay type: functional
[31] = test system: Pseudomonas aeruginosa; assay: Antibacterial activity against Pseudomonas aeruginosa ATCC 10145 incubated for 24 hrs by microtiter plate method; assay type: functional
[32] = test system: Staphylococcus aureus; assay: Antibacterial activity against methicillin resistant Staphylococcus aureus ATCC BAA-1556 incubated for 24 hrs by microtiter plate method; assay type: functional; details: Staphylococcus aureus, ATCC BAA-1556, 24 h, read-out: MIC
[33] = test system: Acinetobacter baumannii; assay: Antibacterial activity against ciprofloxacin resistance Acinetobacter baumannii ATCC BAA1605 incubated for 24 hrs by microtiter plate method; assay type: functional
[34] = test system: Bacillus subtilis; assay: Antibacterial activity against Bacillus subtilis ATCC 6633 incubated for 24 hrs by microtiter plate method; assay type: functional
[35] = test system: Staphylococcus aureus; assay: Antibacterial activity against Staphylococcus aureus ATCC 29213 incubated for 24 hrs by microtiter plate method; assay type: functional; details: Staphylococcus aureus, ATCC 29213, read-out: MIC
[36] = test system: Cell membrane; assay: Membrano-lytic effect in cytoplasmic membrane of Escherichia coli ATCC BAA-2452 assessed as disruption by measuring propidium iodide fluorescence at 4 times MIC incubated for 1 hr by FACscan flow cytometer analysis
[37] = test system: Escherichia coli; assay: Antibacterial activity against Escherichia coli ATCC 25922 after 24 hrs in presence of 1 mM of MgCl2 at by microtiter plate method; assay type: functional
[38] = test system: Staphylococcus aureus; assay: Antibacterial activity against methicillin resistant Staphylococcus aureus ATCC BAA-1556 after 24 hrs in presence of 1 mM of by microtiter plate method; assay type: functional

Compound	MIC [1] [µg/mL]	MIC [2] [µg/mL]	Activity [3]	MIC [4] [µg/mL]	remaining at 0.5 h, 100 µM [5] [%]	Activity [6]	MIC [7] [µg/mL]	Activity [8] [%]	MIC [9] [µg/mL]	Activity [10]	Activity [11] [%]	Activity [12]	viability at 24 h, 150 ug/ml [13] [%]	HC50 at 2 h [14] [µg/mL]	Activity [15]	viability at 50 µg/mL [16] [%]	Ratio [17]	MIC [18] [µg/mL]	viability at 24 h, 50 ug/ml [19] [%]	MIC [20] [µg/mL]	other results
N=C(N)NCCC[C@@H]1NC(=O)[C@H](CCCNC(=N)N)NC(=O)[C@H](CCCNC(=N)N)NC(=O)[C@H](Cc2ccc3ccccc3c2)NC(=O)[C@H](Cc2ccc3ccccc3c2)NC(=O)[C@H](Cc2ccc3ccccc3c2)NC(=O)[C@H](CCCNC(=N)N)NC1=O (cyclo(RRRR[2Nal][2Nal][2Nal]))	3.1	3.1 (≈ 2.55 µM)	Active	12.5 (≈ 10.3 µM)	82	Dde	50 (≈ 41.1 µM)	30	3.1 (≈ 2.55 µM)	Active	14	Active	58	80	Dde	93	2	3.1	93	12.5 (≈ 10.3 µM)	Activity [21]: Tde; MIC [22]: 3.1 µg/mL; MIC [23]: 25 µg/mL; Ratio [24]: 2; Activity [25]: Active; MIC [26]: 25 µg/mL; MBC [27]: 6.2 µg/mL (≈ 5.1 µM); Activity [28]: Active; MIC [29]: 6.2 µg/mL; MIC [30]: 3.1 µg/mL (≈ 2.55 µM); MIC [31]: 25 µg/mL (≈ 20.6 µM); MIC [32]: 3.1 µg/mL (≈ 2.55 µM); MIC [33]: 12.5 µg/mL (≈ 10.3 µM); MIC [34]: 1.5 µg/mL (≈ 1.23 µM); MIC [35]: 3.1 µg/mL (≈ 2.55 µM); Activity [36]: 88%; MIC [37]: 25 µg/mL; MIC [38]: 3.1 µg/mL
N=C(N)NCCC[C@@H]1NC(=O)[C@H](CCCNC(=N)N)NC(=O)[C@H](CCCNC(=N)N)NC(=O)[C@H](C(c2ccccc2)c2ccccc2)NC(=O)[C@H](C(c2ccccc2)c2ccccc2)NC(=O)[C@H](C(c2ccccc2)c2ccccc2)NC(=O)[C@H](CCCNC(=N)N)NC1=O (cyclo(RRRR[Dip][Dip][Dip]))	3.1	6.2 (≈ 4.79 µM)	Active	12.5 (≈ 9.66 µM)	86	Dde	50 (≈ 38.6 µM)	30	3.1 (≈ 2.39 µM)	Active	18	Active	58	70	Dde	93	2	3.1	93	12.5 (≈ 9.66 µM)	Activity [21]: Tde; MIC [22]: 3.1 µg/mL; MIC [23]: 12.5 µg/mL; Ratio [24]: 2; Activity [25]: Active; MIC [26]: 12.5 µg/mL; MBC [27]: 6.2 µg/mL (≈ 4.79 µM); Activity [28]: Active; MIC [29]: 6.2 µg/mL; MIC [30]: 3.1 µg/mL (≈ 2.39 µM); MIC [31]: 25 µg/mL (≈ 19.3 µM); MIC [32]: 3.1 µg/mL (≈ 2.39 µM); MIC [33]: 12.5 µg/mL (≈ 9.66 µM); MIC [34]: 1.5 µg/mL (≈ 1.16 µM); MIC [35]: 3.1 µg/mL (≈ 2.39 µM); Activity [36]: 78%; MIC [37]: 12.5 µg/mL; MIC [38]: 6.2 µg/mL
